What is called AC50 is the concentration giving half of the maximal activity seen.

The record followed here is PubChem BioAssay AID449749 (Broad Institute, 2010).

Records with an inconclusive call do not appear. Activity calls are given as the source filed them. The rule behind the calls is not given here.

Replicative DNA helicase DnaB (Mycobacterium tuberculosis (strain ATCC 25618 / H37Rv)), sequence (P9WMR3 whole entry, looked up): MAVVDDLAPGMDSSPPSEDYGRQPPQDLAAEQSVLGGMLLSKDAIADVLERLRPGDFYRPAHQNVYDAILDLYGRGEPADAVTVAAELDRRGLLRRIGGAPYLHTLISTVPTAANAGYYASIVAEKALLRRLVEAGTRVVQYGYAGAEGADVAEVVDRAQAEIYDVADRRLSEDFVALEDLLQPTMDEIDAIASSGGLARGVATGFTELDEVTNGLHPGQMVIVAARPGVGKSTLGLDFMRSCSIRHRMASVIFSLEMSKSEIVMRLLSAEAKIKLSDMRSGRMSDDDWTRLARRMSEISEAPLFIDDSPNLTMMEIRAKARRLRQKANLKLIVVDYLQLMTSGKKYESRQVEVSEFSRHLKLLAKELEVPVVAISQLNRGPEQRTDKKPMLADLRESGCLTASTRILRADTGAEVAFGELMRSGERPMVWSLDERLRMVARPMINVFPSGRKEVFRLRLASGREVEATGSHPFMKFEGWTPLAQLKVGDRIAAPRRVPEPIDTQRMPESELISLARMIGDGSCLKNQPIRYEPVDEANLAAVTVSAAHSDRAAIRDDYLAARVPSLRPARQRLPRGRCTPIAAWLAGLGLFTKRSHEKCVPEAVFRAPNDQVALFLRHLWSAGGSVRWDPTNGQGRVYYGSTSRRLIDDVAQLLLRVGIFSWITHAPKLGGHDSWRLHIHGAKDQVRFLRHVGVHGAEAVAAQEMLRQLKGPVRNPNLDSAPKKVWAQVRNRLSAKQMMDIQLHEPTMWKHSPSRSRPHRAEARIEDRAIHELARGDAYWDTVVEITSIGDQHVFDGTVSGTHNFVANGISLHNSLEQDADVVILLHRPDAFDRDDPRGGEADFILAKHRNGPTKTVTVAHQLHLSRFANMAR

This test addresses Replicative DNA helicase DnaB (Mycobacterium tuberculosis (strain ATCC 25618 / H37Rv)) (UniProt P9WMR3). As to the kind of experiment: DnaB intein splicing inhibitors, dose response, biochemical, M. tuberculosis H37Rv, cell-free fluorescence (AID 449749).
For the molecule `Oc1cc(O)c2c(c1)O[C@H](c1ccc(O)c(O)c1)[C@H](O)C2`, the AC50 was > 38 µM (inactive). In the case of `COc1ccc2ccc3c(c2c1)N=C[C@]1(O3)N(C)c2ccccc2C1(C)C`, the AC50 is > 38 µM (inactive).

In the case of `Cc1[nH][nH]c(=O)c1[C@@H](c1ccccc1[N+](=O)[O-])C(C#N)C#N`, the AC50 is > 38 µM (inactive).

For the molecule `Cc1[nH][nH]c(=O)c1C(c1ccccc1[N+](=O)[O-])C(C#N)C#N` (centres undefined), the AC50 is > 12 µM (inactive).
